From publication PMC6933707, “Palmitoylethanolamide counteracts substance P-induced mast cell activation in vitro by stimulating diacylglycerol lipase activity” (Journal of Neuroinflammation, 2019)

How the values were obtained:
[1] = tested on: RBL-2H3 cells; assay: β-Hexosaminidase release assay; assay type: cell-based, rat; conditions: 15 min
Procedure: RBL-2H3 cells were plated into 24-well culture dishes at a cell density of 2 × 10^5 cells per well, or into 6-well culture dishes at a cell density of 9 × 10^5 cells per well, for 1 day at 37 °C in 5% CO2 atmosphere. After 1 day, RBL-2H3 cells were stimulated with SP (10 μM) or vehicle (water) and incubated for 15 min at 37 °C in 5% CO2 atmosphere.
SP-stimulated RBL-2H3 cells (2 × 10^5 cells/well) were treated with PEA (0.1, 0.5, 1, and 10 μM) or vehicle (methanol, max 0.1%) for 15 min at 37 °C in 5% CO2 atmosphere. After 15 min, the supernatants (15 μl) were transferred to 96-well plates and incubated with 60 μl of substrate (1 mM p-nitrophenyl-N-acetyl-β-D-glucosaminide in citrate 0.05 M, pH 4.5) for 1 h at 37 °C. To determine the total amount of released β-hexosaminidase, the cells were lysed with 0.1% Triton X-100 and incubated with substrate using the same procedure as for the determination of the activity in the supernatants. The reaction was stopped by adding 150 μl of 0.1 M sodium bicarbonate buffer (pH 10.0), and the reaction product was monitored by measuring the optical density (OD) at 405 nm by using a reader GENios Pro (Tecan). The results were expressed as % of the total β-hexosaminidase content of the cells determined by cell lysis with 0.1% Triton X-100, and calculated by using the following formula: % degranulation = [ODsupernatant/(ODsupernatant + ODtriton x−100)] × 100.

[2] = biological target: T1, human recombinant DAGL-α (Homo sapiens, UniProt Q9Y4D2); assay: DAGL-α enzyme activity assay (COS-7 membranes; radiolabelled substrate or 2-AG by LC-MS); assay type: biochemical
T1 construct: expressed in transfected cells; host or cells: COS-7
T1 sequence (Q9Y4D2 1-1042): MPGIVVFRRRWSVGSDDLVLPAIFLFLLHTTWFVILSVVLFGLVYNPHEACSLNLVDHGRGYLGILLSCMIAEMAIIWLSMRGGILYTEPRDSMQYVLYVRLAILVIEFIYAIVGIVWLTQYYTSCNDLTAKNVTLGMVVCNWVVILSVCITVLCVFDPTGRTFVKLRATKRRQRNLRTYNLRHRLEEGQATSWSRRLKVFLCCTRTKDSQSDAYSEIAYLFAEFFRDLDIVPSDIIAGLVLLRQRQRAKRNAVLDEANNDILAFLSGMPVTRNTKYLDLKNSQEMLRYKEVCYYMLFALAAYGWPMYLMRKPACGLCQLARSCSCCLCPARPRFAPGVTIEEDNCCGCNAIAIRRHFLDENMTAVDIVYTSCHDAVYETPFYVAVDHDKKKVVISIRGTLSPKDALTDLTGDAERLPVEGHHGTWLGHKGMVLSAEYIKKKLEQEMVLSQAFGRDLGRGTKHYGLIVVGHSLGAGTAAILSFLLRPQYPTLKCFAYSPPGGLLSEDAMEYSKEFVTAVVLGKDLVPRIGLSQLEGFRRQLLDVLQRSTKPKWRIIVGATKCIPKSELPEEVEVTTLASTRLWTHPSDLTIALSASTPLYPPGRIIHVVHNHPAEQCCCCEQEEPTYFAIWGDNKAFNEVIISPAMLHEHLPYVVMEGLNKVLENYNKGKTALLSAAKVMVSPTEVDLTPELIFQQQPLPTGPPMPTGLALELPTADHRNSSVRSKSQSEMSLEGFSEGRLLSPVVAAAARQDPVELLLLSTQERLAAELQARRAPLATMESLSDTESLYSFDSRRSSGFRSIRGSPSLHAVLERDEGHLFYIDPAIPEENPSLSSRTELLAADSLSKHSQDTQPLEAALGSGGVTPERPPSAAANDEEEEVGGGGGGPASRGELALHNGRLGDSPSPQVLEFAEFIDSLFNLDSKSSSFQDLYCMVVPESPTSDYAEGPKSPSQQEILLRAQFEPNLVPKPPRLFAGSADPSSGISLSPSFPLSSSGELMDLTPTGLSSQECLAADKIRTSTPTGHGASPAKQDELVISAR
Procedure: DAGL-α enzyme activity was assessed as previously reported by using membrane preparations (50 μg of protein) obtained from COS-7 cells overexpressing the human recombinant DAGL-α enzyme, and 1-[^14C]oleoyl-2-arachidonoylglycerol (1.0 mCi/mmol, 25 μM, synthesized as previously reported, as substrate in the presence of vehicle or increasing concentrations of PEA (0.1–25 μM) in Tris-HCl 50 mM pH 7.4. After the incubation (20 min at 37 °C), lipids were extracted with two volumes of CHCl3/CH3OH (2:1, v/v). The organic extracts, lyophilized under vacuum, were used to quantify the levels of 2-AG by LC-APCI-MS (as described above), or purified by using TLC on silica on polypropylene plates eluted in CHCl3/CH3OH/NH4OH (85:15:0.1%, v/v) as the eluting solvent. Bands corresponding to [^14C]-oleic acid were cut and their radioactivity was measured by using Liquid Scintillation Analyzer (TRI-carb 2100TR). Data were expressed as % of DAGL-α stimulation. To quantify the levels of 2-AG by LC-APCI-MS a non-radiolabeled 1-oleoyl-2-arachidonoylglycerol substrate was used.

Q: What does the source list for `CCCCCCCCCCCCCCCC(=O)NCCO` [PEA, Palmitoylethanolamide]?
A: β-hexosaminidase release ([1]; SP (10 μM)-stimulated cells, PEA 0.1, 0.5, 1 and 10 μM, concentration-dependent, vs SP + vehicle): strongly reduced; β-hexosaminidase release ([1]; substance alone 10 μM, vs vehicle-treated cells): No effect; elevation of levels of 2-AG produced by DAGL-α (LC-MS) ([2]; PEA 25 μM + substrate, compared to membrane preparations incubated alone (no substrate, no PEA)): 5.6 fold; elevation of levels of 2-AG produced by DAGL-α (LC-MS) ([2]; PEA 25 μM, compared to membrane preparations incubated with the substrate 1-oleoyl-2-arachidonoylglycerol and without PEA): 1.4 fold; EC50 ([2]; membranes of COS-7 cells over-expressing DAGL-α, 20 min 37 °C, read-out: EC50, stimulation of DAGL-α activity): 17.3 ± 2.35 µM
